Test [1] concerns HL-60. The test can be described thus: In vitro biological evaluation was determined on HL60 cell line, results expressed as percentage activity at 50% dose response. In kind it is functional, Homo sapiens.
In the next test the test system is Keratinocyte. The test can be described thus: In vitro biological evaluation was determined on Keratinocytes, results expressed as percentage activity at 50% dose response. In kind it is functional, Homo sapiens.
Another test concerns MCF7. The test can be described thus: In vitro biological evaluation was determined on MCF-7 cell line, results expressed as percentage activity at 50% dose response. In kind it is functional, Homo sapiens.
The next test has as its system Mus musculus. Kind of test: In vivo calcemic effects was tested in vitamin D-replete normal NMRI mice by daily intraperitoneal injections of 1-alpha,25(OH)2D3. In kind it is functional.
Test [2] addresses T1, Vitamin D3 receptor (Sus scrofa domesticus) (UniProt Q7M3G7).
T1 sequence (whole entry): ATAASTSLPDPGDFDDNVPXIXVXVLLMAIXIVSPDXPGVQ
Kind of test: The affinity to the pig intestinal mucosa vitamin D receptor was evaluated in vitro, results expressed as percentage activity at 50% dose response. In kind it is tissue-based.

For the next test, the system named is MG-63. Kind of test: In vitro biological evaluation was determined on MG-63 cell line, results expressed as percentage activity at 50% dose response. In kind it is functional, Homo sapiens.
For test [3], the system named is HL-60. The test can be described thus: In vitro biological evaluation was determined on HL60, results expressed as percentage activity at 50% dose response. In kind it is functional, Homo sapiens.

A value given as a limit tells only on which side of the number the result lay.

Regarding `C=C1/C(=C\C=C\[C@@H]2CC[C@](C)(CCC#CC(C)(C)O)C2(C)C)C[C@@H](O)C[C@@H]1O`, the Activity is 100% in the test on HL-60 [1]; 400% in the test with Keratinocyte; 150% with MCF7; 0.1% in the test with Mus musculus; 9% in test [2]; 50% with MG-63.
As to `C=C1C(=CC=C[C@@H]2CC[C@](C)(/C=C\CC(F)(F)C(C)(C)O)C2(C)C)C[C@@H](O)C[C@@H]1O`, the Activity in the test on HL-60 [1] is 20%; with Keratinocyte it was 200%; in the test with MCF7, 70%; in the test with Mus musculus, less than 0.1%; in test [2], 40%; in the test with MG-63 it was 12%.
For `C=C1C(=CC=C[C@@H]2CC[C@](C)(/C=C\CCC(O)(C(F)(F)F)C(F)(F)F)C2(C)C)C[C@@H](O)C[C@@H]1O`, the Activity is 50% in the test with HL-60 [1]; 300% in the test with Keratinocyte; 375% in the test on MCF7; 13% in the test with Mus musculus; 80% in test [2]; 50% in the test with MG-63.
Turning to `C=C1C(=CC=C[C@@H]2CC[C@](C)(CCCCC(C)(C)O)C2(C)C)C[C@@H](O)C[C@@H]1O`, the Activity with HL-60 [1] was 40%; in the test on Keratinocyte, 40%; in the test on MCF7, 80%; in the test with Mus musculus, less than 1%; in test [2], 30%; in the test with MG-63, 60%.
For the compound `CC1(C)[C@H](/C=C/C=C2C[C@@H](O)C[C@H](O)C2)CC[C@]1(C)CCC#CC(O)(C(F)(F)F)C(F)(F)F`, the Activity is 300% in the test with HL-60 [3]; 4500% with Keratinocyte; 2000% with MCF7; 1% with Mus musculus; 100% in test [2].
Turning to `C=C1C(=CC=C[C@@H]2CC[C@](C)(CCCC(F)(F)C(C)(C)O)C2(C)C)C[C@@H](O)C[C@@H]1O`, the Activity was 80% with HL-60 [1]; 1350% with Keratinocyte; 90% in the test on MCF7; 3% with Mus musculus; 75% in test [2]; 50% with MG-63.
For `C=C1C(=CC=C[C@@H]2CC[C@](C)(CCCCC(O)(C(F)(F)F)C(F)(F)F)C2(C)C)C[C@@H](O)C[C@@H]1O`, the Activity was 150% in the test with HL-60 [1]; 750% with Keratinocyte; 1250% with MCF7; 10% in the test with Mus musculus; 80% in test [2]; 200% in the test with MG-63.
On to `CCC(O)(CC)CCCC[C@@]1(C)CC[C@@H](/C=C/C=C2C[C@@H](O)C[C@H](O)C2)C1(C)C`, for which the Activity was 85% in the test on HL-60 [1]; 40% with Keratinocyte; 100% in the test with MCF7; 0.25% in the test with Mus musculus; 75% in test [2]; 80% in the test on MG-63.
As to `CC(C)(O)CCCC[C@@]1(C)CC[C@@H](/C=C/C=C2C[C@@H](O)C[C@H](O)C2)C1(C)C`, the Activity in the test with HL-60 [1] was 9%; in the test with Keratinocyte it was 10%; with MCF7, 30%; in the test on Mus musculus, 0.25%; in test [2], 40%; with MG-63, 40%.
As to `C=C1/C(=C\C=C2/CCC[C@]3(C)[C@@H]([C@H](C)CCCC(C)(C)O)CC[C@@H]23)C[C@@H](O)C[C@@H]1O` [CALCITRIOL], the Activity (with HL-60 [1]; in the test on Keratinocyte; with MCF7; in the test with Mus musculus; in test [2]; in the test with MG-63) was 100% throughout.
`CC(C)(O)C(F)(F)C/C=C\[C@@]1(C)CC[C@@H](/C=C/C=C2C[C@@H](O)C[C@H](O)C2)C1(C)C`: the Activity in the test with HL-60 [1] was 20%; in the test on Keratinocyte, 60%; in the test with MCF7, 10%; in the test on Mus musculus, 0.5%; in test [2], 70%.
For `CC(C)(O)C#CCC[C@@]1(C)CC[C@@H](/C=C/C=C2C[C@@H](O)C[C@H](O)C2)C1(C)C`, in that order: 60%, 85%, 70%, 0.25% and 60%.
Consider `C=C1C(=CC=C[C@@H]2CC[C@](C)(CCCCC(O)(CC)CC)C2(C)C)C[C@@H](O)C[C@@H]1O`, for which the Activity in the test with HL-60 [1] is 100%; with Keratinocyte, 90%; in the test on MCF7 it was 250%; with Mus musculus, 5%; in test [2] it was 80%; with MG-63 it was 200%.

The values above are taken from ChEMBL document CHEMBL1135150, “Vitamin D(3): synthesis of seco C-9,11,21-trisnor-17-methyl-1 alpha, 25-dihydroxyvitamin D(3) analogues” (2002).
